Legend:
Human primary lung cells = assay: CellTiter-Glo Luminescent Cell Viability Assay after ALI exposure in the CCES, human primary lung cells; format: cell-based; settings: 2 h ALI exposure, 4 h post-exposure, Inc. Ct. = 100; for CellTiter-Glow viability, Average: average of 3 experiments
Procedure: (§1) The Cell Culture Exposure System (CCES) provides the ability to expose cultured mammalian cells to airborne chemicals at ALI conditions in a 24-well format.
Human primary lung cells were collected by cytology brush biopsy during bronchoscopy at EPA clinical facility in Chapel Hill. Cells were cultured by standard procedures and were provided to EPA/RTP.
Cells were cultured and plated onto Transwell membranes and grown out for 28 days as described in OP.
(§2) Cells were placed into new 24-well plates with fresh growth media and put at ALI 2 h prior to exposure. […] Control cells were exposed simultaneously to clean air for 2 h in a separate chamber. Another set of control cells were kept at ALI in an incubator (37° C., 5% CO2) for 2 h. After the exposure, cells were placed in an incubator (37° C., 5% CO2) for 4 h. A total of three exposures were conducted for each cell type.
(§3) The CellTiter-Glo® Luminescent Cell Viability Assay (Promega) determines the number of viable cells based on quantification of the ATP present; an indicator of metabolically active cells. […] Two inserts per exposure condition were measured for each run.

BEAS-2B cells = assay: CellTiter-Glo Luminescent Cell Viability Assay after ALI exposure in the CCES, BEAS-2B cells; format: cell-based, human; settings: 2 h ALI exposure, 4 h post-exposure, Inc. Ct. = 100; for CellTiter-Glow viability, Average: average of 3 experiments
Procedure: as §1
The BEAS-2B cell line, obtained from ATTC, is an immortalized human bronchial epithelial lung cell.
Cells were grown out on T75 cm^2 flasks in complete Keratinocyte Growth Media (KGM) (KGM-Gold Bullet Kit, Lonza®). Cells were passaged and seeded onto 6.5 mm (24-well format) permeable (0.4-μm pore size) Transwell polyester membranes at passages 55 and 56. Prior to seeding, Transwells were coated with PureCol® bovine collagen (Advanced Biometrix) at a density of 10 μg/cm^2. Cells were seeded at 3.0×10^4 cells per Transwell membranes 48 h prior to exposure and at 1.5×10^4 per Transwell membrane 72 h prior to exposure to obtain a confluent monolayer. Cells were seeded on 4 inserts per exposure condition for each run.
as §2, §3

C=CC=C [1,3-Butadiene, 1,3-butadiene]
CellTiter-Glow viability, May 3, 2017 (Human primary lung cells; 0.16 ppm): 110.9
CellTiter-Glow viability, May 4, 2017 (Human primary lung cells; 0.16 ppm): 99.9
CellTiter-Glow viability, May 5, 2017 (Human primary lung cells; 0.16 ppm): 90.1
CellTiter-Glow viability, Average (Human primary lung cells; 0.16 ppm): 100.3
CellTiter-Glow viability, May 3, 2017 (Human primary lung cells; 0.5 ppm): 118.5
CellTiter-Glow viability, May 4, 2017 (Human primary lung cells; 0.5 ppm): 86.3
CellTiter-Glow viability, May 5, 2017 (Human primary lung cells; 0.5 ppm): 94.2
CellTiter-Glow viability, Average (Human primary lung cells; 0.5 ppm): 99.6
CellTiter-Glow viability, May 3, 2017 (Human primary lung cells; 1.7 ppm): 120.3
CellTiter-Glow viability, May 4, 2017 (Human primary lung cells; 1.7 ppm): 91.8
CellTiter-Glow viability, May 5, 2017 (Human primary lung cells; 1.7 ppm): 101.4
CellTiter-Glow viability, Average (Human primary lung cells; 1.7 ppm): 104.5
CellTiter-Glow viability, May 3, 2017 (Human primary lung cells; 5 ppm): 122.0
CellTiter-Glow viability, May 4, 2017 (Human primary lung cells; 5 ppm): 112.0
CellTiter-Glow viability, May 5, 2017 (Human primary lung cells; 5 ppm): 98.6
CellTiter-Glow viability, Average (Human primary lung cells; 5 ppm): 110.8
CellTiter-Glow viability, May 3, 2017 (Human primary lung cells; 16 ppm): 128.1
CellTiter-Glow viability, May 4, 2017 (Human primary lung cells; 16 ppm): 101.3
CellTiter-Glow viability, May 5, 2017 (Human primary lung cells; 16 ppm): 98.9
CellTiter-Glow viability, Average (Human primary lung cells; 16 ppm): 109.4
CellTiter-Glow viability, May 3, 2017 (Human primary lung cells; 50 ppm): 104.7
CellTiter-Glow viability, May 4, 2017 (Human primary lung cells; 50 ppm): 92.7
CellTiter-Glow viability, May 5, 2017 (Human primary lung cells; 50 ppm): 95.4
CellTiter-Glow viability, Average (Human primary lung cells; 50 ppm): 97.6
CellTiter-Glow Viability, May 10, 2017 (BEAS-2B cells; 0.16 ppm): 96.27
CellTiter-Glow Viability, May 11, 2017 (BEAS-2B cells; 0.16 ppm): 87.14
CellTiter-Glow Viability, May 12, 2017 (BEAS-2B cells; 0.16 ppm): 96.95
CellTiter-Glow viability, Average (BEAS-2B cells; 0.16 ppm): 93.45
CellTiter-Glow Viability, May 10, 2017 (BEAS-2B cells; 0.5 ppm): 101.8
CellTiter-Glow Viability, May 11, 2017 (BEAS-2B cells; 0.5 ppm): 89.3
CellTiter-Glow Viability, May 12, 2017 (BEAS-2B cells; 0.5 ppm): 96.1
CellTiter-Glow viability, Average (BEAS-2B cells; 0.5 ppm): 95.73
CellTiter-Glow Viability, May 10, 2017 (BEAS-2B cells; 1.7 ppm): 94.35
CellTiter-Glow Viability, May 11, 2017 (BEAS-2B cells; 1.7 ppm): 94.49
CellTiter-Glow Viability, May 12, 2017 (BEAS-2B cells; 1.7 ppm): 95.83
CellTiter-Glow viability, Average (BEAS-2B cells; 1.7 ppm): 94.89
CellTiter-Glow Viability, May 10, 2017 (BEAS-2B cells; 5 ppm): 105.3
CellTiter-Glow Viability, May 11, 2017 (BEAS-2B cells; 5 ppm): 81.9
CellTiter-Glow Viability, May 12, 2017 (BEAS-2B cells; 5 ppm): 96.8
CellTiter-Glow viability, Average (BEAS-2B cells; 5 ppm): 94.66
CellTiter-Glow Viability, May 10, 2017 (BEAS-2B cells; 16 ppm): 101.5
CellTiter-Glow Viability, May 11, 2017 (BEAS-2B cells; 16 ppm): 87.31
CellTiter-Glow Viability, May 12, 2017 (BEAS-2B cells; 16 ppm): 79.14
CellTiter-Glow viability, Average (BEAS-2B cells; 16 ppm): 89.33
CellTiter-Glow Viability, May 10, 2017 (BEAS-2B cells; 50 ppm): 105.1
CellTiter-Glow Viability, May 11, 2017 (BEAS-2B cells; 50 ppm): 71.1
CellTiter-Glow Viability, May 12, 2017 (BEAS-2B cells; 50 ppm): 9.72
CellTiter-Glow viability, Average (BEAS-2B cells; 50 ppm): 61.99
